Assay results as given in patent US11274104B2, “Crystal forms of thiophene derivatives” (Tianjin Hemay Pharmaceutical Co., Ltd, priority 2018, dated 2022).

Tests used:
Type in all cases: physicochemical
Hygroscopicity (RH=80%) = experiment: Hygroscopicity (RH=80%)
Procedure: Hygroscopicity of crystal form II of (S)—N-[5-[1-(3-ethoxy-4-methoxyphenyl)-2-(methylsulfonyl)ethyl]-4,6-dioxo-5,6-dihydro-4H-thieno[3,4-c]pyrrole-1-yl]acetamide was studied. Crystal form II of (S)—N-[5-[1-(3-ethoxy-4-methoxyphenyl)-2-(methylsulfonyl)ethyl]-4,6-dioxo-5,6-dihydro-4H-thieno[3,4-c]pyrrole-1-yl]acetamide was placed in a drier containing saturated ammonium chloride solution (RH=80%) until weight was balanced. The crystal form was tested with XRPD.
Crystal form II of (S)—N-[5-[1-(3-ethoxy-4-methoxyphenyl)-2-(methylsulfonyl)ethyl]-4,6-dioxo-5,6-dihydro-4H-thieno[3,4-c]pyrrole-1-yl]acetamide prepared according to the process of Example 1 was tested.

[1] = High temperature stability (40° C., 1 month)
Procedure: (§1) Crystal form II of (S)—N-[5-[1-(3-ethoxy-4-methoxyphenyl)-2-(methylsulfonyl)ethyl]-4,6-dioxo-5,6-dihydro-4H-thieno[3,4-c]pyrrole-1-yl]acetamide prepared according to the process of Example 1 was placed at 40° C. (high temperature). After 1 month, liquid chromatogram and DSC were tested.

Grinding stability = details: grinding in a glass mortar for 5 minutes
Procedure: Crystal form II of (S)—N-[5-[1-(3-ethoxy-4-methoxyphenyl)-2-(methylsulfonyl)ethyl]-4,6-dioxo-5,6-dihydro-4H-thieno[3,4-c]pyrrole-1-yl]acetamide prepared according to the process of Example 1 was ground in a glass mortar for 5 minutes. The ground samples were tested with XRPD.

[2] = Pressure stability (tablet press); details: single punch tablet press, tablet 6 mm, hardness 25-30 N; DSC (FIG. 5)
Procedure: Crystal form II of (S)—N-[5-[1-(3-ethoxy-4-methoxyphenyl)-2-(methylsulfonyl)ethyl]-4,6-dioxo-5,6-dihydro-4H-thieno[3,4-c]pyrrole-1-yl]acetamide was pressed by tablet press machine with single punch. The diameter of the tablet was 6 mm and the hardness was 25-30 N. DSC test was carried out on pressed powder.

[3] = Accelerated stability (40° C., RH 75%, 1 month)
Procedure: as §1, with “placed in a stability text box” for “placed”, “and Rh=75%.” for “(high temperature).”

[4] = Illumination stability (4500 lux, 1 month); details: liquid chromatogram
Procedure: as §1, with “in a 4500 lux of illumination box for” for “at 40° C. (high temperature). After”, “month. Liquid” for “month, liquid”, “tested after 1 month.” for “tested.”

[5] = day 0, before storage at 40° C., liquid chromatogram
[6] = storage at 40° C., 1 month, liquid chromatogram

For `CCOc1cc([C@@H](CS(C)(=O)=O)N2C(=O)c3csc(NC(C)=O)c3C2=O)ccc1OC` [crystal form II, (S)—N-[5-[1-(3-ethoxy-4-methoxyphenyl)-2-(methylsulfonyl)ethyl]-4,6-dioxo-5,6-dihydro-4H-thieno[3,4-c]pyrrole-1-yl]acetamide], the “hygroscopicity (in words)” value (Hygroscopicity (RH=80%); RH=80%) was “hardly absorbed moisture”, the “Weight Increase” value (Hygroscopicity (RH=80%); RH=80% (saturated ammonium chloride solution) until weight balanced, mAPI 0.497 g) was -0.001 g and the “Moisture Absorption (%)” value (Hygroscopicity (RH=80%); RH=80% until weight balanced) was 0%. The “Crystal Form after Absorbing Moisture” value (Hygroscopicity (RH=80%); RH=80% until weight balanced, XRPD) was “did not change”, the “stability under high temperature conditions (in words)” value ([1]; 40° C., 1 month) was “good stability” and the “Relevant Substance Contents at Day 0 (%)” value [1, 5] was 0.10%. For the same compound, the “Relevant Substance Contents after 1 Month (%)” value [1, 6] was 0.12%, the “grinding stability (in words)” value (Grinding stability) was “good grinding stability” and the “pressure stability (in words)” value [2] was “good stability”. For the same compound, the “stability under high-temperature and high-humidity conditions (in words)” value ([3]; 40° C., 1 month) was “good stability”, the “Relevant Substance Contents at Day 0 (%)” value [3, 5] was 0.11% and the “Relevant Substance Contents after 1 Month (%)” value [3, 6] was 0.11%. For the same compound, the “Relevant Substance Contents after 1 Month (%)” value ([4]; 4500 lux, 1 month) was 0.06% and the “Relevant Substance Contents at Day 0 (%)” value ([4]; day 0, before illumination at 4500 lux) was 0.06%.
